According to US7598258B2, “Quinoline derivatives and quinazoline derivatives inhibiting autophosphorylation of macrophage colony stimulating factor receptor” (Kirin Beer Kabushiki Kaisha, priority 2002, dated 2009):

Biological target: T1, Human KDR (Homo sapiens, UniProt P35968)
T1 construct: expressed in transfected cells; host or cells: NIH3T3 cells (mouse fibroblasts)
Experiment: Inhibition of KDR phosphorylation in human KDR-transfected NIH3T3 cells (ELISA)
Assay type: cell-based
Conditions: for Selection ratio (KDR phosphorylation IC50 / c-fms phosphorylation IC50): class 0-3; for IC50: human KDR-transfected NIH3T3 cells, VEGF 100 ng/ml, ELISA, read-out: KDR phosphorylation 50% inhibitory concentration (IC50)
Experimental: Human KDR-transfected NIH3T3 cells (Sawano A et al., Cell Growth & Differentiation, 7, 213-221 (1996)) were cultured in a DMEM medium containing 10% fetal calf serum (purchased from GIBCO BRL) within a 5% carbon dioxide incubator until 50 to 70% confluent. The harvested cells were seeded into wells, containing the same medium, in a collagen type 1 coat 96-well flat-bottom plate in an amount of 1.5×10^4 per well, and cultured at 37° C. overnight. The medium was replaced with a 0.1% fetal calf serum-containing DMEM medium. The test compound dissolved in dimethyl sulfoxide was added to each well, and the cultivation was continued at 37° C. for additional one hr. A human recombinant vascular endothelial growth factor (hereinafter abbreviated to “VEGF”) was added to a final concentration of 100 ng/ml, followed by stimulation of cells at 37° C. for 2 min. The medium was removed, and the cells were washed with phosphate buffered saline (pH 7.4). A solubilization buffer (50 μl) (20 mM HEPES (pH 7.4), 150 mM NaCl, 0.2% Triton X-100, 10% glycerol, 5 mM sodium orthovanadylate, 5 mM disodium ethylenediaminetetraacetate, and 2 mM Na4P2O7) was then added thereto. The mixture was shaken at 4° C. for 2 hr to prepare a cell extract.
Separately, phosphate buffered saline (50 μl, pH 7.4) containing 5 μg/ml of anti-phospho-tyrosine antibody (PY20; purchased from Transduction Laboratories) was added to a microplate for ELISA (Maxisorp; purchased from NUNC), followed by standing at 4° C. overnight to be immobilized on the wells. After washing of the plate, 300 μl of a blocking solution was added, followed by standing at room temperature for 2 hr to perform blocking. After washing, the whole cell extract was transferred and was allowed to stand at 4° C. overnight. After washing, an anti-KDR antibody (purchased from Santa Cruz Biotechnology) was allowed to react at room temperature for one hr. Further, after washing, a peroxidase-labeled anti-rabbit Ig antibody (purchased from Amersham) was allowed to react at room temperature for one hr. After washing, a chromophoric substrate for peroxidase (purchased from Sumitomo Bakelite Co., Ltd.) was added thereto to initiate a reaction. After a suitable level of color development, a reaction termination solution was added to stop the reaction, and the absorbance at 450 nm was measured with a microplate reader. The KDR phosphorylation activity for each well was determined by presuming the absorbance without the addition of the test compound and with the addition of VEGF to be 100% KDR phosphorylation activity and the absorbance without the addition of the test compound and VEGF to be 0% KDR phosphorylation activity. The concentration of the test compound was varied on several levels, the KDR phosphorylation inhibitory rate was determined for each case, and the concentration of the test compound necessary for inhibiting 50% of KDR phosphorylation (IC50) was calculated.

T1 sequence (P35968 20-1356): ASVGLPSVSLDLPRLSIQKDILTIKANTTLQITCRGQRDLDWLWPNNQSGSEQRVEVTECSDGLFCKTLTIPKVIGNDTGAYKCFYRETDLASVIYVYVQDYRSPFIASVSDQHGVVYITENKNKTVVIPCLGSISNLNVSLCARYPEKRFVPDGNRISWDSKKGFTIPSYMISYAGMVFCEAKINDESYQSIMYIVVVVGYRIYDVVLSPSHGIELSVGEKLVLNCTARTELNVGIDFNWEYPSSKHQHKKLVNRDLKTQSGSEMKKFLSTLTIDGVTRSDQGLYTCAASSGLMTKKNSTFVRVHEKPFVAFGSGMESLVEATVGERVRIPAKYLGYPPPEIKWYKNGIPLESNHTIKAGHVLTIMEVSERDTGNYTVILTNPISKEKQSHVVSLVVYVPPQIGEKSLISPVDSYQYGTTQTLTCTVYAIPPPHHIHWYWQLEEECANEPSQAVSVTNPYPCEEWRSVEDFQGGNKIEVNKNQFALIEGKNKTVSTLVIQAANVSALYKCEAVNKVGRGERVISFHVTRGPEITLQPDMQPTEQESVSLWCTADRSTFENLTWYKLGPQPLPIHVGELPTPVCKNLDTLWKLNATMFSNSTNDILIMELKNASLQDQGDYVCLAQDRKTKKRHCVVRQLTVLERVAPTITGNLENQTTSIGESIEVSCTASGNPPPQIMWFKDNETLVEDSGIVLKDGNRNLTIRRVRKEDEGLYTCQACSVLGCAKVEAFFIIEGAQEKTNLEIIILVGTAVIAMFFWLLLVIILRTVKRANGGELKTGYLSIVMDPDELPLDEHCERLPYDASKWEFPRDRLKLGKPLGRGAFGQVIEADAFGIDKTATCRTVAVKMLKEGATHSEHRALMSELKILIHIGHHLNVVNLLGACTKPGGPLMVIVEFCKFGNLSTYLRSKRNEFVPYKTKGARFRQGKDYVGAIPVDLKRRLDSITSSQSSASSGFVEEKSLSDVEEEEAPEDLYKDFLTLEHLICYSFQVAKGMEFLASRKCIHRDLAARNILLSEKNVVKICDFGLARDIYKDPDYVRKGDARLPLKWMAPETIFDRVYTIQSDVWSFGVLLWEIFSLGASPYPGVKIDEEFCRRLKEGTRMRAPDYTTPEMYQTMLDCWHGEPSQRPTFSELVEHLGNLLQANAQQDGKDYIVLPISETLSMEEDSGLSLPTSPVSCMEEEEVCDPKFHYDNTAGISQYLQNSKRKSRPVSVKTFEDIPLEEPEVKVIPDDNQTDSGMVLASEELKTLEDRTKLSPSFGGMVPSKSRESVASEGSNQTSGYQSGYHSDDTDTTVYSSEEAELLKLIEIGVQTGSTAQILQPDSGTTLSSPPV

With `COc1cc2nccc(Oc3ccc(NC(=O)N[C@H](C)c4cccc(Br)c4)cc3Cl)c2cc1OC` [Example 57, N-[(1R)-1-(3-Bromophenyl)ethyl]-N′-{3-chloro-4-[(6,7-dimethoxy-4-quinolyl)oxy]phenyl}urea] the “Selection ratio (KDR phosphorylation IC50 / c-fms phosphorylation IC50)” value was 0 (KDR phosphorylation 50% inhibitory concentration [μM]/c-fms phosphorylation 50% inhibitory concentration [μM] was less than 5) and the IC50 was 3.6 nM.

`COc1cc2nccc(Oc3ccc(NC(=O)N[C@H](C)c4cccc(Br)c4)c(C)c3)c2cc1OC` [Example 58, N-[(1R)-1-(3-Bromophenyl)ethyl]-N′-{4-[(6,7-dimethoxy-4-quinolyl)oxy]-2-methylphenyl}urea] was tested, and the “Selection ratio (KDR phosphorylation IC50 / c-fms phosphorylation IC50)” value was 0 (KDR phosphorylation 50% inhibitory concentration [μM]/c-fms phosphorylation 50% inhibitory concentration [μM] was less than 5) and the IC50 was 2.1 nM.

`COc1cc(Oc2ccnc3cc(OC)c(OC)cc23)ccc1NC(=O)N[C@H](C)c1cccc(Br)c1` [Example 59, N-[(1R)-1-(3-Bromophenyl)ethyl]-N′-{4-[(6,7-dimethoxy-4-quinolyl)oxy]-2-methoxyphenyl}urea] was tested, and the “Selection ratio (KDR phosphorylation IC50 / c-fms phosphorylation IC50)” value was 0 (KDR phosphorylation 50% inhibitory concentration [μM]/c-fms phosphorylation 50% inhibitory concentration [μM] was less than 5) and the IC50 was 8.7 nM.

For `COc1cc2nccc(Oc3ccc(NC(=O)N[C@H](C)c4cccc(Br)c4)c(C(F)(F)F)c3)c2cc1OC` [Example 60, N-[(1R)-1-(3-Bromophenyl)ethyl]-N′-[4-[(6,7-dimethoxy-4-quinolyl)oxy]-2-(trifluoromethyl)phenyl]urea], the “Selection ratio (KDR phosphorylation IC50 / c-fms phosphorylation IC50)” value was 0 (KDR phosphorylation 50% inhibitory concentration [μM]/c-fms phosphorylation 50% inhibitory concentration [μM] was less than 5) and the IC50 was 1.9 nM.

For `COc1cc2nccc(Oc3ccc(NC(=O)N[C@H](C)c4cccc(Br)c4)cc3OC)c2cc1OC` [Example 61, N-[(1R)-1-(3-Bromophenyl)ethyl]-N′-{4-[(6,7-dimethoxy-4-quinolyl)oxy]-3-methoxyphenyl}urea], the “Selection ratio (KDR phosphorylation IC50 / c-fms phosphorylation IC50)” value was 0 (KDR phosphorylation 50% inhibitory concentration [μM]/c-fms phosphorylation 50% inhibitory concentration [μM] was less than 5) and the IC50 was 19.2 nM.

In the case of `COc1cc2nccc(Oc3ccc(NC(=O)N[C@H](C)c4cccc(Br)c4)c(C)c3C)c2cc1OC` [Example 62, N-[(1R)-1-(3-Bromophenyl)ethyl]-N′-{4-[(6,7-dimethoxy-4-quinolyl)oxy]-2,3-dimethylphenyl}urea], the “Selection ratio (KDR phosphorylation IC50 / c-fms phosphorylation IC50)” value is reported as 0 (KDR phosphorylation 50% inhibitory concentration [μM]/c-fms phosphorylation 50% inhibitory concentration [μM] was less than 5) and the IC50 is reported as 2.7 nM.

In the case of `COc1cc2nccc(Oc3ccc(NC(=O)N[C@H](C)c4cccc(Br)c4)c(F)c3)c2cc1OC` [Example 63, N-[(1R)-1-(3-Bromophenyl)ethyl]-N′-{4-[(6,7-dimethoxy-4-quinolyl)oxy]-2-fluorophenyl}urea], the “Selection ratio (KDR phosphorylation IC50 / c-fms phosphorylation IC50)” value is reported as 0 (KDR phosphorylation 50% inhibitory concentration [μM]/c-fms phosphorylation 50% inhibitory concentration [μM] was less than 5) and the IC50 is reported as 2.6 nM.

In the case of `COc1cc2c(Oc3ccc(NC(=O)NC(C)c4ccc(F)cc4)cc3F)ccnc2cc1OCCCN1CCOCC1` (stereo not shown) [Example 64, N-(3-Fluoro-4-{[6-methoxy-7-(3-morpholinopropoxy)-4-quinolyl]oxy}phenyl)-N′-[1-(4-fluorophenyl)ethyl]urea], the “Selection ratio (KDR phosphorylation IC50 / c-fms phosphorylation IC50)” value is reported as 0 (KDR phosphorylation 50% inhibitory concentration [μM]/c-fms phosphorylation 50% inhibitory concentration [μM] was less than 5) and the IC50 is reported as 9.8 nM.

`COc1cc2c(Oc3ccc(NC(=O)NC(C)c4ccc(F)c(F)c4)cc3F)ccnc2cc1OCCCN1CCOCC1` (stereo not shown) [Example 65, N-[1-(3,4-Difluorophenyl)ethyl]-N′-(3-fluoro-4-{[6-methoxy-7-(3-morpholinopropoxy)-4-quinolyl]oxy}phenyl)urea] was tested, and the “Selection ratio (KDR phosphorylation IC50 / c-fms phosphorylation IC50)” value was 0 (KDR phosphorylation 50% inhibitory concentration [μM]/c-fms phosphorylation 50% inhibitory concentration [μM] was less than 5) and the IC50 was 31.9 nM.

`COc1cc2c(Oc3ccc(NC(=O)NC(C)c4ccc(F)cc4F)cc3F)ccnc2cc1OCCCN1CCOCC1` (stereo not shown) [Example 66, N-[1-(2,4-Difluorophenyl)ethyl]-N′-(3-fluoro-4-{[6-methoxy-7-(3-morpholinopropoxy)-4-quinolyl]oxy}phenyl)urea] was tested, and the “Selection ratio (KDR phosphorylation IC50 / c-fms phosphorylation IC50)” value was 0 (KDR phosphorylation 50% inhibitory concentration [μM]/c-fms phosphorylation 50% inhibitory concentration [μM] was less than 5) and the IC50 was 16.5 nM.

In the case of `COc1cc2c(Oc3ccc(NC(=O)NC(C)c4ccc(F)cc4)c(F)c3)ccnc2cc1OCCCN1CCOCC1` (stereo not shown) [Example 67, N-(2-Fluoro-4-{[6-methoxy-7-(3-morpholinopropoxy)-4-quinolyl]oxy}phenyl)-N′-[1-(4-fluorophenyl)ethyl]urea], the “Selection ratio (KDR phosphorylation IC50 / c-fms phosphorylation IC50)” value is reported as 0 (KDR phosphorylation 50% inhibitory concentration [μM]/c-fms phosphorylation 50% inhibitory concentration [μM] was less than 5) and the IC50 is reported as 2.9 nM.

For `COc1cc2c(Oc3ccc(NC(=O)NC(C)c4ccc(F)c(F)c4)c(F)c3)ccnc2cc1OCCCN1CCOCC1` (stereo not shown) [Example 68, N-[1-(3,4-Difluorophenyl)ethyl]-N′-(2-fluoro-4-{[6-methoxy-7-(3-morpholinopropoxy)-4-quinolyl]oxy}phenyl)urea], the “Selection ratio (KDR phosphorylation IC50 / c-fms phosphorylation IC50)” value was 0 (KDR phosphorylation 50% inhibitory concentration [μM]/c-fms phosphorylation 50% inhibitory concentration [μM] was less than 5) and the IC50 was 5.6 nM.

For `COc1cc2c(Oc3ccc(NC(=O)NC(C)c4ccc(F)cc4F)c(F)c3)ccnc2cc1OCCCN1CCOCC1` (stereo not shown) [Example 69, N-[1-(2,4-Difluorophenyl)ethyl]-N′-(2-fluoro-4-{[6-methoxy-7-(3-morpholinopropoxy)-4-quinolyl]oxy}phenyl)urea], the “Selection ratio (KDR phosphorylation IC50 / c-fms phosphorylation IC50)” value was 0 (KDR phosphorylation 50% inhibitory concentration [μM]/c-fms phosphorylation 50% inhibitory concentration [μM] was less than 5) and the IC50 was 5.2 nM.

For `COc1cc2nccc(Oc3ccc(NC(=O)NC(C)c4nccs4)c(F)c3)c2cc1OC` (stereo not shown) [Example 70, N-{4-[(6,7-Dimethoxy-4-quinolyl)oxy]-2-fluorophenyl}-N′-[1-(1,3-thiazol-2-yl)ethyl]urea], the “Selection ratio (KDR phosphorylation IC50 / c-fms phosphorylation IC50)” value was 2 (when the value was 10 or more) and the IC50 was 55.1 nM.

In the case of `COc1cc2nccc(Oc3ccc(NC(=O)N[C@@H](C)c4nccs4)c(F)c3)c2cc1OC` [Example 71, N-{4-[(6,7-Dimethoxy-4-quinolyl)oxy]-2-fluorophenyl}-N′-[(1S)-1-(1,3-thiazol-2-yl)ethyl]urea], the “Selection ratio (KDR phosphorylation IC50 / c-fms phosphorylation IC50)” value is reported as 2 (when the value was 10 or more) and the IC50 is reported as 39.9 nM.

In the case of `COc1cc2nccc(Oc3ccc(NC(=O)N[C@H](C)c4nccs4)c(F)c3)c2cc1OC` [Example 72, N-{4-[(6,7-Dimethoxy-4-quinolyl)oxy]-2-fluorophenyl}-N′-[(1R)-1-(1,3-thiazol-2-yl)ethyl]urea], the “Selection ratio (KDR phosphorylation IC50 / c-fms phosphorylation IC50)” value is reported as 1 (when the value was 5 or more) and the IC50 is reported as 35.6 nM.

With `COc1cc2nccc(Oc3ccc(NC(=O)NC(C)c4nccs4)cc3F)c2cc1OC` (stereo not shown) [Example 73, N-{4-[(6,7-Dimethoxy-4-quinolyl)oxy]-3-fluorophenyl}-N′-[1-(1,3-thiazol-2-yl)ethyl]urea] the “Selection ratio (KDR phosphorylation IC50 / c-fms phosphorylation IC50)” value was 2 (when the value was 10 or more) and the IC50 was 43.3 nM.

In the case of `COc1cc2nccc(Oc3ccc(NC(=O)NC(C)c4nccs4)cc3)c2cc1OC` (stereo not shown) [Example 77, N-{4-[(6,7-Dimethoxy-4-quinolyl)oxy]phenyl}-N′-[1-(1,3-thiazol-2-yl)ethyl]urea], the “Selection ratio (KDR phosphorylation IC50 / c-fms phosphorylation IC50)” value is reported as 2 (when the value was 10 or more) and the IC50 is reported as 101 nM.

`COc1cc2nccc(Oc3ccc(NC(=O)N[C@@H](C)c4nccs4)cc3)c2cc1OC` [Example 78, N-{4-[(6,7-Dimethoxy-4-quinolyl)oxy]phenyl}-N′-[(S)-1-(1,3-thiazol-2-yl)ethyl]urea] was tested, and the “Selection ratio (KDR phosphorylation IC50 / c-fms phosphorylation IC50)” value was 2 (when the value was 10 or more) and the IC50 was 53.9 nM.

With `COc1cc2nccc(Oc3ccc(NC(=O)N[C@H](C)c4nccs4)cc3)c2cc1OC` [Example 79, N-{4-[(6,7-Dimethoxy-4-quinolyl)oxy]phenyl}-N′-[(1R)-1-(1,3-thiazol-2-yl)ethyl]urea] the “Selection ratio (KDR phosphorylation IC50 / c-fms phosphorylation IC50)” value was 2 (when the value was 10 or more) and the IC50 was 95.2 nM.
